Results as given in US9604933B2, “Pyrazolochalcones as potential anticancer agents” (COUNCIL OF SCIENTIFIC AND INDUSTRIAL RESEARCH, priority 2013, dated 2017).
Read-outs that look alike come from different tables or passages of the source.

Experiments:
TK-10 = test: NCI SRB cytotoxicity, renal TK-10; type: cell-based; conditions: Homo sapiens, 48 h exposure
Experimental: (§1) The pyrazolochalcones (7e, 8e, 10e, 11e, 12e, 13e and 8f) have been tested against fifty nine human tumor cell lines derived from nine cancer types (leukemia, non-small cell lung cancer, colon cancer, CNS cancer, melanoma, ovarian cancer, renal cancer, prostate cancer and breast cancer) as per the NCI protocol. For each compound, dose response curves for individual cell lines have been measured at a minimum of five concentrations at 10 fold dilutions. A protocol of 48 h continuous drug exposure has been used, and a sulforhodamine B (SRB) protein assay has been used to estimate cell viability or growth. The concentration for 50% cell growth inhibition (GI50), 50% cell death (LC50, 50% growth) and total cell growth inhibition (TGI, 0% growth) values were tabulated (Table-1). DMSO was used as control to calculate the values of GI50, LC50 and TGI. The compounds 7e, 8e, 10e, 11e, 12e, 13e and 8f has been evaluated for their in vitro cytotoxicity in […] cell lines from nine human cancer types of leukemia (K-562, SR), non-small cell lung (Hop-62, NCI-H226, NCI-H522), colon (HCT-116, HCT-15, HCC-2998), CNS (SF-539), melanoma (SK-MEL-5, UACC-62, M14), ovarian (IGROV1), renal (A498), prostate (PC3) and breast (BT-549, MDA-MB-435, HS578T) origin. The results are expressed as percent of cell growth determined relative to that of untreated control cells (Table 2).

UO-31 = test: NCI SRB cytotoxicity, renal UO-31; type: cell-based; conditions: Homo sapiens, 48 h exposure
Experimental: as §1

RPMI-8226 = test: NCI SRB cytotoxicity, leukemia RPMI-8226; type: cell-based; conditions: Homo sapiens, 48 h exposure
Experimental: as §1

MDA-MB-435 = test: NCI SRB cytotoxicity, breast panel MDA-MB-435; type: cell-based; conditions: Homo sapiens, 48 h exposure
Experimental: as §1

Colon = test: NCI SRB cytotoxicity, colon panel average; type: cell-based, human; conditions: average of cell lines
Experimental: as §1
(§2) Each cancer type represents the average of six to eight different cancer cell lines.

NCI/ADR-RES = test: NCI SRB cytotoxicity, ovarian NCI/ADR-RES; type: cell-based; conditions: Homo sapiens, 48 h exposure
Experimental: as §1

Ovarian = test: NCI SRB cytotoxicity, ovarian panel average; type: cell-based, human; conditions: average of cell lines
Experimental: as §1, §2

NCIH322M = test: NCI SRB cytotoxicity, non-small cell lung NCIH322M; type: cell-based; conditions: Homo sapiens, NCI-H322M, 48 h exposure
Experimental: as §1

Prostate = test: NCI SRB cytotoxicity, prostate panel average; type: cell-based, human; conditions: average of cell lines
Experimental: as §1, §2

NCI-H226 = test: NCI SRB cytotoxicity, non-small cell lung NCI-H226; type: cell-based; conditions: Homo sapiens, 48 h exposure
Experimental: as §1

KM12 = test: NCI SRB cytotoxicity, colon KM12; type: cell-based; conditions: Homo sapiens, 48 h exposure
Experimental: as §1

SW-620 = test: NCI SRB cytotoxicity, colon SW-620; type: cell-based; conditions: Homo sapiens, 48 h exposure
Experimental: as §1

Renal = test: NCI SRB cytotoxicity, renal panel average; type: cell-based, human; conditions: average of cell lines
Experimental: as §1, §2

CNS = test: NCI SRB cytotoxicity, CNS panel average; type: cell-based, human; conditions: average of cell lines
Experimental: as §1, §2

A498 = test: NCI SRB cytotoxicity, renal A498; type: cell-based; conditions: Homo sapiens, 48 h exposure
Experimental: as §1

Breast = test: NCI SRB cytotoxicity, breast panel average; type: cell-based, human; conditions: average of cell lines
Experimental: as §1, §2

T-47D = test: NCI SRB cytotoxicity, breast T-47D; type: cell-based; conditions: Homo sapiens, T47D, 48 h exposure
Experimental: as §1

MDA-MB-231/ATCC = test: NCI SRB cytotoxicity, breast MDA-MB-231/ATCC; type: cell-based; conditions: Homo sapiens, 48 h exposure
Experimental: as §1

MCF7 = test: NCI SRB cytotoxicity, breast MCF7; type: cell-based; conditions: Homo sapiens, 48 h exposure
Experimental: as §1

786-0 = test: NCI SRB cytotoxicity, renal 786-0; type: cell-based; conditions: Homo sapiens, 48 h exposure
Experimental: as §1

MOLT-4 = test: NCI SRB cytotoxicity, leukemia MOLT-4; type: cell-based; conditions: Homo sapiens, 48 h exposure
Experimental: as §1

BT-549 = test: NCI SRB cytotoxicity, breast BT-549; type: cell-based; conditions: Homo sapiens, 48 h exposure
Experimental: as §1

ACHN = test: NCI SRB cytotoxicity, renal ACHN; type: cell-based; conditions: Homo sapiens, 48 h exposure
Experimental: as §1

NCI-H23 = test: NCI SRB cytotoxicity, non-small cell lung NCI-H23; type: cell-based; conditions: Homo sapiens, 48 h exposure
Experimental: as §1

HL-60(TB) = test: NCI SRB cytotoxicity, leukemia HL-60(TB); type: cell-based; conditions: Homo sapiens, 48 h exposure
Experimental: as §1

Leukemia = test: NCI SRB cytotoxicity, leukemia panel average; type: cell-based, human; conditions: average of cell lines
Experimental: as §1, §2

SK-MEL-5 = test: NCI SRB cytotoxicity, melanoma SK-MEL-5; type: cell-based; conditions: Homo sapiens, 48 h exposure
Experimental: as §1

A549/ATCC = test: NCI SRB cytotoxicity, non-small cell lung A549/ATCC; type: cell-based; conditions: Homo sapiens, 48 h exposure
Experimental: as §1

RXF 393 = test: NCI SRB cytotoxicity, renal RXF 393; type: cell-based; conditions: Homo sapiens, 48 h exposure
Experimental: as §1

OVCAR-5 = test: NCI SRB cytotoxicity, ovarian OVCAR-5; type: cell-based; conditions: Homo sapiens, 48 h exposure
Experimental: as §1

HOP-62 = test: NCI SRB cytotoxicity, non-small cell lung HOP-62; type: cell-based; conditions: Homo sapiens, 48 h exposure
Experimental: as §1

IGROV1 = test: NCI SRB cytotoxicity, ovarian IGROV1; type: cell-based; conditions: Homo sapiens, IGROV-1, 48 h exposure
Experimental: as §1

human tumor cell lines = test: NCI SRB cytotoxicity, all fifty nine human tumor cell lines; type: cell-based; set-up: Log10 TGI mean graph midpoint (MG_MID): unit not given here; conditions: for GI50: Homo sapiens
Experimental: as §1
The mean graph midpoint values of Log10 TGI and Log10 LC50 as well as Log10 GI50 for compounds 7e, 8e, 10e, 11e, 12e, 13e and 8f is listed in Table-3. […] The mean graph mid points of Log10 TGI and Log10, LC50 have shown similar pattern to the log10 GI50 mean graph mid points.

HCT-15 = test: NCI SRB cytotoxicity, colon HCT-15; type: cell-based; conditions: Homo sapiens, 48 h exposure
Experimental: as §1

[1] = Homo sapiens, read-out: Log10 GI50 (concentration in mol/L causing 50% growth inhibition) (converted)
[2] = Homo sapiens, read-out: Log10 LC50 (concentration in mol/L causing 50% cell death) (converted)

Q: How did the GI50 (TK-10) turn out when COc1ccc(C(=O)/C=C/c2cc(-c3cc(OC)c(OC)c(OC)c3)n[nH]2)cc1 [7e, (E)-1-(4-methoxyphenyl)-3-(3-(3,4,5-trimethoxyphenyl)-1H-pyrazol-5-yl)prop-2-en-1-one] was run?
A: 2220 nM

Q: And the GI50 (UO-31)?
A: 1450 nM

Q: And the GI50 (RPMI-8226)?
A: 430 nM

Q: And the GI50 (MDA-MB-435)?
A: 1290 nM

Q: What about the GI50 (Colon; [1]) of the same compound?
A: 1740 nM

Q: And the LC50 (Colon; [2])?
A: 19100 nM

Q: And the “Log10 TGI (concentration in mol/L causing total growth inhibition)” value (Colon)?
A: −5.41 mol/L

Q: What about the GI50 (NCI/ADR-RES) of the same compound?
A: 2700 nM

Q: And the GI50 (Ovarian; [1])?
A: 2400 nM

Q: And the CC50 (Ovarian; [2])?
A: 47900 nM

Q: And the “Log10 TGI (concentration in mol/L causing total growth inhibition (0% growth))” value (Ovarian)?
A: −5.15 mol/L

Q: And the GI50 (NCIH322M)?
A: 1920 nM

Q: And the GI50 (Prostate; [1])?
A: 1480 nM

Q: And the “Log10 TGI (concentration in mol/L causing total growth inhibition (0% growth))” value (Prostate)?
A: −5.55 mol/L

Q: What about the GI50 (NCI-H226) of the same compound?
A: 1890 nM

Q: And the GI50 (KM12)?
A: 1560 nM

Q: And the GI50 (SW-620)?
A: 1620 nM

Q: What about the GI50 (Renal; [1]) of the same compound?
A: 1820 nM

Q: And the CC50 (Renal; [2])?
A: 18200 nM

Q: And the “Log10 TGI (concentration in mol/L causing total growth inhibition (0% growth))” value (Renal)?
A: −5.43 mol/L

Q: And the GI50 (CNS; [1])?
A: 1660 nM

Q: What about the LC50 (CNS; [2]) of the same compound?
A: 24500 nM

Q: What about the “Log10 TGI (concentration in mol/L causing total growth inhibition (0% growth))” value (CNS) of the same compound?
A: −5.46 mol/L

Q: What about the GI50 (A498) of the same compound?
A: 1740 nM

Q: And the GI50 (Breast; [1])?
A: 1910 nM

Q: What about the CC50 (Breast; [2]) of the same compound?
A: 33900 nM

Q: What about the “Log10 TGI (concentration in mol/L causing total growth inhibition (0% growth))” value (Breast) of the same compound?
A: −5.08 mol/L

Q: And the GI50 (T-47D)?
A: 2310 nM

Q: And the GI50 (MDA-MB-231/ATCC)?
A: 1880 nM

Q: And the GI50 (MCF7)?
A: 1150 nM

Q: And the GI50 (786-0)?
A: 1950 nM

Q: What about the GI50 (MOLT-4) of the same compound?
A: 2670 nM

Q: What about the GI50 (BT-549) of the same compound?
A: 1860 nM

Q: And the GI50 (ACHN)?
A: 1960 nM

Q: What about the GI50 (NCI-H23) of the same compound?
A: 3040 nM

Q: And the GI50 (HL-60(TB))?
A: 2160 nM

Q: And the GI50 (Leukemia; [1])?
A: 1200 nM

Q: And the CC50 (Leukemia; [2])?
A: 0.0001 mol/L

Q: And the “Log10 TGI (concentration in mol/L causing total growth inhibition (0% growth))” value (Leukemia)?
A: −5.18 mol/L

Q: What about the GI50 (SK-MEL-5) of the same compound?
A: 1720 nM

Q: What about the GI50 (A549/ATCC) of the same compound?
A: 2270 nM

Q: What about the GI50 (RXF 393) of the same compound?
A: 1270 nM

Q: What about the GI50 (OVCAR-5) of the same compound?
A: 1880 nM

Q: And the GI50 (HOP-62)?
A: 1760 nM

Q: And the GI50 (IGROV1)?
A: 2210 nM

Q: And the GI50 (human tumor cell lines; across fifty nine cell lines in nine cell panels, read-out: GI50 value range)?
A: 180 to 29200 nM

Q: What about the GI50 (human tumor cell lines; against human tumor cell lines, read-out: Log10 GI50 mean graph midpoint (MG_MID) (converted)) of the same compound?
A: 1780 nM

Q: What about the cytotoxicity (human tumor cell lines; against cancer cell lines, in words) of the same compound?
A: significant cytotoxicity

Q: What about the “Log10 TGI mean graph midpoint (MG_MID)” value (human tumor cell lines; against human tumor cell lines) of the same compound?
A: −5.31

Q: And the LC50 (human tumor cell lines; against human tumor cell lines, read-out: Log10 LC50 mean graph midpoint (MG_MID) (converted))?
A: 33900 nM

Q: And the GI50 (HCT-15)?
A: 1580 nM
